Results taken from patent US4780238A (priority 1985, dated 1988).

System: P. aeruginosa
Format: cell-based, Pseudomonas aeruginosa

Compound	inhibitory effect on growth	lag period of the organism
O=[N+]([O-])[O-].O=[N+]([O-])[O-].[O]=[U+2]=[O] [uranyl nitrate]	stronger inhibitory effect on growth of the organism than thorium	
O=[N+]([O-])[O-].O=[N+]([O-])[O-].O=[N+]([O-])[O-].O=[N+]([O-])[O-].[Th+4] [Th(NO3)4, thorium nitrate]		the lag period of the organism also increased
